Laboratory results published in patent US20260200937A1, “EXATECAN HYD[…] USE THEREOF” (HANGZHOU ADCORIS BIOPHARMA CO., LTD, priority 2023, published 2026).
Read-outs that look alike come from different tables or passages of the source.

How the values were obtained:
Assay type in all cases: cell-based
[1] = system: NCI-N87: human gastric cancer cells; test: Tumor cell growth inhibition (CCK-8, 72 h), NCI-N87; conditions: 72 h incubation, read-out: IC50 for inhibiting the growth of tumor cells, NCI-N87
Procedure: (§1) • OE33: human esophageal cancer cells; • SK-BR-3: human breast cancer cells; • NCI-N87: human gastric cancer cells; • NCI-H1975: human lung cancer cells; • MDA-MB-231: human breast cancer cells; • NCI-H226: human lung squamous cell carcinoma cells; • TE12: human esophageal cancer cells.
(§2) Tumor cells OE33, SK-BR-3, NCI-N87, NCI-H1975, MDA-MB-231, NCI-H226, and TE12 were cultured separately in RPMI1640 (Cellmax) supplemented with 10% fetal bovine serum (Cellmax). Tumor cells in the exponential growth phase were diluted to a concentration of 1×10^5 cells/mL with culture medium and added to 96-well cell culture plates at 100 μL per well, then returned and incubated overnight in a 37° C. incubator with 5% CO2. On the following day, the compounds were diluted to concentrations of 10000 nM, 2000 nM, 400 nM, 80 nM, 16 nM, 3.2 nM, 0.64 nM, and 0.13 nM with culture medium, and the diluted compounds were added to the 96-well cell culture plates at 2 μL per well, with three replicate wells for each concentration. Negative control and blank control groups without addition of compounds were added with 2 μL of the dilution liquid per well. After the addition of the compounds, the plates were returned to the 37° C. incubator with 5% CO2 to continue the incubation for 72 h. After the incubation, the cell culture plates were removed, and the culture medium in the plates was aspirated using a pipette. Then, 100 μL of culture medium containing 10% CCK-8 was added to each well, and the plates were incubated at 37° C. for 3 h. After the incubation, the plates were removed, kept in the dark, and placed in an […]. Absorbance was measured at 630 nm as the reference wavelength and 450 nm as the test wavelength. Based on the absorbance values, the IC50 values (Table 1) were calculated using the four-parameter logistic regression method in GraphPad.

[2] = system: NCI-H1975: human lung cancer cells; test: Tumor cell growth inhibition (CCK-8, 72 h), NCI-H1975; conditions: 72 h incubation, read-out: IC50 for inhibiting the growth of tumor cells, NCI-H1975
Procedure: as §1, §2

[3] = system: SK-BR-3: human breast cancer cells; test: Tumor cell growth inhibition (CCK-8, 72 h), SK-BR-3; conditions: SK-BR-3 cells, 72 h incubation, read-out: IC50 for inhibiting the growth of tumor cells, SK-BR-3
Procedure: as §1, §2

[4] = system: TE12: human esophageal cancer cells; test: Tumor cell growth inhibition (CCK-8, 72 h), TE12; conditions: 72 h incubation, read-out: IC50 for inhibiting the growth of tumor cells, TE12
Procedure: as §1, §2

[5] = system: NCI-H226: human lung squamous cell carcinoma cells; test: Tumor cell growth inhibition (CCK-8, 72 h), NCI-H226; conditions: 72 h incubation, read-out: IC50 for inhibiting the growth of tumor cells, NCI-H226
Procedure: as §1, §2

[6] = system: OE33: human esophageal cancer cells; test: Tumor cell growth inhibition (CCK-8, 72 h), OE33; conditions: 72 h incubation, read-out: IC50 for inhibiting the growth of tumor cells, OE33
Procedure: as §1, §2

[7] = system: MDA-MB-231: human breast cancer cells; test: Tumor cell growth inhibition (CCK-8, 72 h), MDA-MB-231; conditions: MDA-MB-231 cells, 72 h incubation, read-out: IC50 for inhibiting the growth of tumor cells, MDA-MB-231
Procedure: as §1, §2

Row | Structure (SMILES) | IC50 ([1]; Homo sapiens) | IC50 ([2]; Homo sapiens) | IC50 ([3]; Homo sapiens) | IC50 ([4]; Homo sapiens) | IC50 ([5]; Homo sapiens) | IC50 ([6]; Homo sapiens) | IC50 ([7]; Homo sapiens) | IC50 [1] | IC50 [2] | IC50 [3] | IC50 [4] | IC50 [5] | IC50 [6] | IC50 [7]
1 | [2H]C([2H])([2H])NOCC(=O)N[C@H]1CCc2c(C)c(F)cc3nc4c(c1c23)Cn1c-4cc2c(c1=O)COC(=O)[C@]2(O)CC [Compound D1, N-(2′-O—(N-trideuteriomethylamino)oxyacetyl)exatecan] | 2.44 nM | 65 nM | 2.59 nM | 36.7 nM | 22.8 nM | 4.32 nM | 183 nM | – | – | – | – | – | – | –
2 | CC[C@@]1(O)C(=O)OCc2c1cc1n(c2=O)Cc2c-1nc1cc(F)c(C)c3c1c2[C@@H](NC(=O)C1(ONC)CCC1)CC3 [Compound D2, N-(1′-O—(N-methylamino)oxycyclobutane-1′-carbonyl)exatecan] | 1.11 nM | 26.7 nM | 2.62 nM | 13.6 nM | 6.35 nM | 1.95 nM | 236 nM | – | – | – | – | – | – | –
3 | CC[C@@]1(O)C(=O)OCc2c1cc1n(c2=O)Cc2c-1nc1cc(F)c(C)c3c1c2[C@@H](NC(=O)[C@H](C)ONC)CC3 [Compound D3, N-(2′-methyl-2′-O—(N-methylamino)oxyacetyl)exatecan] | 1.69 nM | 36.9 nM | 4.84 nM | 18.5 nM | 7.65 nM | 3.8 nM | 237 nM | – | – | – | – | – | – | –
4 | [2H]C([2H])([2H])NOC([2H])([2H])C(=O)N[C@H]1CCc2c(C)c(F)cc3nc4c(c1c23)Cn1c-4cc2c(c1=O)COC(=O)[C@]2(O)CC [Compound D4, N-(2′,2′-dideuterio-2′-O—(N-trideuteriomethylamino)oxyacetyl)exatecan] | 3.68 nM | 64.4 nM | 4.48 nM | 33.1 nM | 20.8 nM | 5.56 nM | 425 nM | – | – | – | – | – | – | –
5 | CC[C@@]1(O)C(=O)OCc2c1cc1n(c2=O)Cc2c-1nc1cc(F)c(C)c3c1c2[C@@H](NC(=O)C1CNOC1)CC3 (stereo partly drawn) [Compound D5, N-(isoxazolidine-4′-carbonyl)exatecan] | 6.84 nM | 97.4 nM | 15.4 nM | 94.9 nM | 49.7 nM | 22.5 nM | 351 nM | – | – | – | – | – | – | –
6 | CC[C@@]1(O)C(=O)OCc2c1cc1n(c2=O)Cc2c-1nc1cc(F)c(C)c3c1c2[C@@H](NC(=O)CO)CC3 [Dxd, reference compound] | – | – | – | – | – | – | – | 2.48 nM | 25.7 nM | 9.69 nM | 21.5 nM | 75.1 nM | 7.01 nM | 320 nM
